# Measurements as given in patent publication US20100221345A1, “OSTEOGENIC BIOMATERIAL CONTAINING OSTEOGENESIS PROMOTING SUBSTANCE AND NANOGEL” (NATIONAL UNIVERSITY CORPORATION TOKYO MEDICAL AND, priority 2006, published 2010).
# Experiments:
# mouse parietal bone = test: Osteogenesis in mouse parietal bone with PGE2-containing CHP nanogel (width by 2-D μCT); format: in vivo; settings: 3-week old ICR mouse, local administration onto parietal bone 5 times a week for 4 weeks, PGE2 0.6 μg/ml, FIG. 3
# Procedure: PGE2-containing hydrophobized polysaccharide nanogel was administered to a mouse parietal bone to observe osteogenesis.
# (§1) The PGE2-containing CHP prepared by the same manner as in Example 2 was locally administrated onto the parietal bone of a 3-week old ICR mouse 5 times a week for 4 weeks. […] of the prepared PGE2-containing CHP solution (PGE2 0.6 μg/ml) was administered for a dose. Evaluation was conducted for 4 groups of physiological saline, PGE2, CHP, PGE2-containing CHP (N=5). After 4 weeks of administration, the mice were sacrificed, and the parietal bones were collected, and the width of the parietal bone was measured by 2-D μCT. In order to study the effect on the bones of a whole body, the amount of cancellous bone of the femur was evaluated.
# femur cancellous bone = test: Effect on bones of the whole body: amount of cancellous bone of the femur; format: in vivo, ICR mouse; settings: same mice, local parietal administration 5 times a week for 4 weeks, FIG. 4
# Procedure: as §1
# MC3T3E1 cells [1] = test: Cell differentiation by alkaline phosphatase (ALP) activity in osteoblast cell line; format: cell-based; settings: PGE2 10 μM, 24 hours, FIG. 5
# Procedure: (§2) In order to understand the mechanism at the cellular level of the PGE2-containing CHP nanogel, the osteoblast cell line MC3T3E1 cell culture system was used to analyze the cell differentiation by alkaline phosphatase (ALP) activity and the cell growth by the MTT method.
# (§3) MC3T3E1 cells were seeded 5×10^3 cells/well in a 96-well plate and cultured in the presence of […] at 37° C. for 1 day. These cells were supplied with the PGE2-containing CHP solution (PGE2 10 μM) prepared in the same manner as in Example 2 to get the same concentration, then cultured in the presence of […] at 37° C. for 24 hours, then collected by scraping, and dissolved in 0.05 ml of a lysis buffer. The alkaline phosphatase (ALP) activity was measured according to the published protocols. In addition, the MTT method was conducted according to the published protocols.
# MC3T3E1 cells [2] = test: Cell growth by the MTT method in osteoblast cell line; format: cell-based; settings: PGE2 10 μM, 24 hours, FIG. 5
# Procedure: as §2, §3
smiles,measurement,setting,value
"CCCCC[C@H](O)/C=C/[C@H]1[C@H](O)CC(=O)[C@@H]1C/C=C\CCCC(=O)O [PGE2, Prostaglandin E2]",width of the parietal bone,mouse parietal bone,no change
same,amount of cancellous bone in the femur apart from the administration site,femur cancellous bone,increase
same,cellular differentiation (ALP activity),MC3T3E1 cells [1],increase
same,cellular growth (MTT method),MC3T3E1 cells [2],increase
